From BindingDB's records for doi:10.1021/jm00029a008 (Dupont Pharmaceuticals, 1994)
Structures can show the parent of a compound that is named as a salt.

Columns and labels:
[1] = Binding affinity for sigma receptor of guinea pig whole brain using [3H]-[…] radioligand
[2] = target: D(2) dopamine receptor (guinea pig); assay: Binding affinity for dopamine D2 receptor using [3H]spiperone in guinea pig striatum

Ki [1] [nM]	Ki [2] [nM]	SMILES
9	62	O=C1c2ccc(F)cc2CCC1C1CCN(Cc2ccccc2)CC1 (centres undefined) [2-(1-Benzyl-piperidin-4-yl)-6-fluoro-3,4-dihydro-2H-naphthalen-1-one]
5		O=C1c2cccc(F)c2CCC1C1CCN(CCc2ccccc2)CC1 (centres undefined) [5-Fluoro-2-(1-phenethyl-piperidin-4-yl)-3,4-dihydro-2H-naphthalen-1-one; hydrochloride]
4		O=C1c2ccccc2CCC12CCN(Cc1ccc(F)cc1)CC2 [1'-(4-fluorobenzyl)spiro[1,2,3,4-tetrahydronaphthalene-2,4'-(hexahydropyridine)]-1-one; hydrochloride]
10	600	O=C1c2ccccc2CCC1C1CCN(CCc2ccccc2)CC1 (centres undefined) [2-(1-Phenethyl-piperidin-4-yl)-3,4-dihydro-2H-naphthalen-1-one; hydrobromide]
26		CC(C1CC1)N1CCC(C2CCc3ccccc3C2=O)CC1 (centres undefined) [2-[1-(1-Cyclopropyl-ethyl)-piperidin-4-yl]-3,4-dihydro-2H-naphthalen-1-one; hydrobromide]
11	61	O=C1c2ccccc2CCC1C1CCN(Cc2ccc(F)cc2)CC1 (centres undefined) [2-[1-(4-Fluoro-benzyl)-piperidin-4-yl]-3,4-dihydro-2H-naphthalen-1-one; hydrochloride]
1.9	1970	O=C1c2ccccc2CCC12CCN(Cc1ccc([N+](=O)[O-])cc1)CC2 [1'-(4-nitrobenzyl)spiro[1,2,3,4-tetrahydronaphthalene-2,4'-(hexahydropyridine)]-1-one; hydrochloride]
	344	O=C1c2ccc(F)cc2CCC1C1CCN(CCc2ccccc2)CC1 (centres undefined) [6-Fluoro-2-(1-phenethyl-piperidin-4-yl)-3,4-dihydro-2H-naphthalen-1-one]
26	1080	O=C1c2ccccc2CCC1C1CCN(CC2CC2)CC1 (centres undefined) [2-(1-Cyclopropylmethyl-piperidin-4-yl)-3,4-dihydro-2H-naphthalen-1-one; hydrobromide]
11	> 10000	O=C1c2ccccc2CCC12CCN(Cc1ccc3ccccc3c1)CC2 [1'-(2-naphthylmethyl)spiro[1,2,3,4-tetrahydronaphthalene-2,4'-(hexahydropyridine)]-1-one ;malate]
2	1170	O=C1c2ccccc2CCC12CCN(CC1CCCCC1)CC2 [1'-cyclohexylmethylspiro[1,2,3,4-tetrahydronaphthalene-2,4'-(hexahydropyridine)]-1-one; hydrochloride]
7		COc1ccc2c(c1)CCC(C1CCN(Cc3ccccc3)CC1)C2=O (centres undefined) [2-(1-Benzyl-piperidin-4-yl)-6-methoxy-3,4-dihydro-2H-naphthalen-1-one]

Continued, compound first:

SMILES	Ki [1] [nM]	Ki [2] [nM]
CC(C)(C)c1ccc(CN2CCC(C3CCc4ccccc4C3=O)CC2)cc1 (centres undefined) [2-[1-(4-tert-Butyl-benzyl)-piperidin-4-yl]-3,4-dihydro-2H-naphthalen-1-one]	26	410
O=C1c2ccc(Cl)cc2CCC12CCN(CCc1ccccc1)CC2 [6-chloro-1'-phenethylspiro[1,2,3,4-tetrahydronaphthalene-2,4'-(hexahydropyridine)]-1-one]	35	
CC(C)(C)c1ccc(CN2CCC3(CCc4ccccc4C3=O)CC2)cc1 [1'-[4-(tert-butyl)benzyl]spiro[1,2,3,4-tetrahydronaphthalene-2,4'-(hexahydropyridine)]-1-one; hydrochloride]	15	
O=C1c2ccccc2CCC1C1CCN(Cc2ccccc2)CC1 (centres undefined) [2-(1-Benzyl-piperidin-4-yl)-3,4-dihydro-2H-naphthalen-1-one; hydrochloride]	4	1000
COc1ccc(CN2CCC3(CCc4ccccc4C3=O)CC2)cc1 [1'-(4-methoxybenzyl)spiro[1,2,3,4-tetrahydronaphthalene-2,4'-(hexahydropyridine)]-1-one; hydrochloride]	3	
O=C1c2ccccc2CCC12CCN(Cc1ccccc1)CC2	1	
OC1CCc2ccccc2C12CCN(CCc1ccccc1)CC2 (centres undefined) [1'-phenethylspiro[1,2,3,4-tetrahydronaphthalene-1,4'-(hexahydropyridine)]-2-ol]		> 10000
O=C1c2ccc(Cl)cc2CCC1C1CCN(CCc2ccccc2)CC1 (centres undefined) [6-Chloro-2-(1-phenethyl-piperidin-4-yl)-3,4-dihydro-2H-naphthalen-1-one; hydrochloride]	9	
Cc1ccc(CN2CCC(C3CCc4ccccc4C3=O)CC2)cc1 (centres undefined) [2-[1-(4-Methyl-benzyl)-piperidin-4-yl]-3,4-dihydro-2H-naphthalen-1-one; hydrate]	8	
O=C1CCc2ccccc2C12CCN(CCc1ccccc1)CC2 [1'-phenethylspiro[1,2,3,4-tetrahydronaphthalene-1,4'-(hexahydropyridine)]-2-one]	13	> 10000
O=C1c2ccccc2CCC1C1CCN(Cc2ccc(C(F)(F)F)cc2)CC1 (centres undefined) [2-[1-(4-Trifluoromethyl-benzyl)-piperidin-4-yl]-3,4-dihydro-2H-naphthalen-1-one; hydrochloride]	19	
O=C1c2ccccc2CCC12CCN(Cc1ccc(C(F)(F)F)cc1)CC2 [1'-(4-trifluoromethylbenzyl)spiro[1,2,3,4-tetrahydronaphthalene-2,4'-(hexahydropyridine)]-1-one; malate]	24	
